Reference: patent publication US8404866B2, “Substituted heterocyclic mercaptosulfonamide metalloprotease inhibitors” (Florida State University Research Foundation, priority 2008, dated 2013)
Where a name gives a salt, the structure may show the parent alone.

Legend:
[1] = tested on: human mesenchymal stem cells (hMSC); assay: MMPI cytotoxicity / growth of hMSC (trypan blue count); type: cell-based; conditions: 1 nM to 100 μM, 24 hours
Description: Passage 3 human adult bone marrow-derived mesenchymal stem cells (hMSCs, Tulane Center for Gene Therapy) were plated for a recovery phase of 24 hours at 37° C. and 5% CO2 in Alpha Minimum Essential Medium (αMEM, Sigma Aldrich) containing L-glutamine but without ribonucleosides or deoxyribonucleosides, 16.5% FBS, ˜2-4 mM L-glutamine, and penicillin and streptomycin as antibiotics. After the recovery phase, hMSCs were seeded into 6-well plates at a density of ˜60 cells/cm^2 within each well containing 2 mL of cell culture medium. Fresh cell culture medium was added every 3 days until the cells reached a confluency of approximately ˜70% at which media was changed to the conditioned forms necessary for observing MMPI cytotoxicity.
(§1) Upon reaching the desired confluency, each cell type was treated with the respective fresh media that was conditioned with a logarithmic panel of MMPI concentrations ranging from 1 nM to 100 μM. Specifically, each of the inhibitors were dissolved in an appropriate amount of 100% EtOH to generate 8 mM stock solutions from which an aliquot was used to produce serial dilutions with either SmBm or αMEM. The conditioned media was added to either hCASMCs or hMSCs and incubated for 24 hours. […] In order to quantify the levels of toxicity these inhibitors had on hCASMC and hMSC growth and viability, the cells were treated with trypan blue and counted via a hemocytometer. […]

[2] = tested on: human brain microvascular endothelial cells (hBMECs); assay: Endothelial cell migration and wound-healing assay; type: cell-based; conditions: at 3 μM and above, 24 hours
Description: Culture of human brain microvascular endothelial cells: Human brain microvascular endothelial cells (hBMECs) were cultured with EGM-2MV Microvascular Endothelial Cell Medium-2 1 kit Bullet Kit, 5% fetal bovine serum, with or without treatments with synthetic matrix metalloproteinase inhibitors (MMPIs), at 37° C. and 5% CO2.
Endothelial cell migration and wound-healing assays: All experiments for this phase were performed in triplicate, and each consisted of […] wounded cultures utilizing serial concentrations of MMPIs: (1) an untreated control; (2) 100 μM MMPI; (3) 30 μM MMPI; (4) 10 μM MMPI; (5) 3 μM MMPI; (6) 1 μM MMPI; (7) 100 nM MMPI; (8) 10 nM MMPI; and (9) 1 nM MMPI. A 1 mL pipette tip was utilized to create a linear wound in a confluent monolayer of hBMECs. A fine, sterile needle was used to demarcate a cell-free “wounded field”. All cultures were photographed at that time. After 24 hours, the wounded cell culture was washed three times with phosphate buffered saline, fixed with 4% paraformaldehyde for 10-20 min, and stained with 0.1% crystal violet for 10-20 min. The stained culture was washed with ddH2O three times and left overnight to air dry. […] The density of the cell coverage in the wounded field was quantified utilizing the integrated morphometry analysis (IMA) (Metamorph System v.4.6r8, University Imaging Corp.). […]

[3] = tested on: human coronary artery smooth muscle cells (hCASMC); assay: MMPI cytotoxicity / growth of hCASMC (trypan blue count); type: cell-based; conditions: 24 hours
Description: Passage 7 human coronary artery smooth muscle cells (hCASMCs) were plated in a 10 cm dish containing 20 mL of smooth muscle basal medium (SmBm, Lonza, Cat. No. CC-3182) supplemented with 0.1% insulin, 0.1% epidermal growth factor (rhEGF), 0.2% fibroblast growth factor-B (rhFGF-B), 0.1% gentamicin/amphotericin (antibiotics), and 5% FBS. The cells were incubated for 24 hours at 37° C. and 5% CO2, with 20 mL of fresh SmBm added the following day. Fresh SmBm was added every 2 days until the culture was ˜70-80% confluent and contained a minimum of 5 mitotic figures when viewed at 100× magnification. At this time, cells were then trypsinized and seeded into 24-well plates at an initial density of 3,500 cells/cm^2 and grown to ˜60% confluence prior to MMPI treatment.
as §1, with “αMEM.” for “αMEM. The conditioned media was added to either hCASMCs or hMSCs and incubated for 24 hours.”

melting point [°C]	Structure (SMILES)	hMSC growth curve [1]	inhibition on hBMEC wound healing [2]	hCASMC growth ([3]; lower concentrations, compared to identical concentrations of YHJ-6-286 and YHJ-7-23)	hCASMC growth curve ([3]; 1 nM to 100 μM)
170 to 171	NC(=O)N1C[C@H](NS(=O)(=O)c2ccc(Oc3ccccc3)cc2)[C@@H](S)C1 (racemic) [Example 1, (±)-N-Carbamoyl-trans-3-(4-phenoxybenzenesulfonamido)-4-mercaptopyrrolidine]	erratic results	pretty good inhibition		
	O=S(=O)(N[C@H]1CNC[C@@H]1S)c1ccc(Oc2ccccc2)cc1 (racemic) [Example 3, (±)-trans-3-(4-Phenoxybenzenesulfonamido)-4-mercaptopyrrolidine Hydrochloride]			increased hCASMC growth nearly two-fold	
	CN([C@H]1CN(C(N)=O)C[C@@H]1S)S(=O)(=O)c1ccc(Oc2ccccc2)cc1 (racemic) [Example 4, (±)-N-Carbamoyl-trans-3-(N-methyl-4-phenoxybenzenesulfonamido)-4-mercaptopyrrolidine]	steadily increased as the concentration of YHJ-7-23 was decreased			local minimum originating at 300 nM and minimizing at ˜30 nM
142 to 143	O=C(OCc1ccccc1)N1C[C@H](NS(=O)(=O)c2ccc(Oc3ccccc3)cc2)[C@@H](S)C1 (racemic) [Example 5, (±)-N-(Benzyloxycarbonyl)-trans-3-(4-phenoxybenzenesulfonamido)-4-mercaptopyrrolidine]				
